# Results as given in the METLIN SMRT retention time set (Domingo-Almenara et al. 2019).
# Test: gradient 5% acetonitrile 3 min, to 50% in 2 min, to 85% in 15 min, held 3 min, 100 µL/min
# Details: column: Zorbax Extend-C18 2.1 x 50 mm; eluents: water / acetonitrile, 0.1% formic acid
# Procedure, shortened: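 Standards, all pure, were combined into mixtures of ~100 molecules and run at 100 μL/min on a Zorbax Extend-C18 column (2.1 × 50 mm, 1.8 μm) with water and acetonitrile, each containing 0.1% formic acid. A coupled quadrupole time-of-flight mass spectrometer operated in positive and negative ionization mode. Retention time values come from computationally picked adduct peaks, each inspected manually.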
row,RP-LC retention time,Compound
1,1100 s,Cc1cc(C)cc(NC(=O)Cn2nc(N3CCC(C)CC3)c3ccccc3c2=O)c1
2,580 s,CN1CCN(C(CNS(=O)(=O)c2cc(F)ccc2F)c2cccn2C)CC1 (stereo not given)
3,962 s,COc1ccc(-c2nc(NC(=O)c3ccc(C#N)cc3)sc2C)cc1
4,771 s,Cc1ccc(C)c(N2CCN(C(=O)c3cn4ccccc4n3)CC2)c1
5,752 s,CCOC(=O)c1cnc2nc(C)ccc2c1Nc1ccc(Cl)cc1
6,838 s,COC(=O)c1cc2c(=O)n(CCc3cccs3)ccc2nc1C
7,737 s,O=C(NCCCn1nc(-c2ccco2)ccc1=O)c1cc(Cl)ccc1Cl
8,836 s,CC1=C(c2ccccc2)S(=O)(=O)N=C1N1CCCN(C(=O)COc2ccccc2)CC1
9,628 s,O=C(Cn1c(-c2cccnc2)nc2ccccc21)Nc1nccs1
10,1100 s,Cc1ccc(-c2nnc(-c3cccc(S(=O)(=O)N4CCSCC4)c3)o2)cc1
11,592 s,NC(=O)C1CCN(C(=O)c2cc(-n3cnnn3)ccc2Cl)CC1
12,604 s,O=C(CN1CCCc2nc(C3CC3)ncc2C1=O)NC1CC1
13,740 s,CCCC(=O)N1CCCN(C2=NS(=O)(=O)C(c3ccccc3)=C2C)CC1
14,964 s,CCc1ccc(Nc2nc(C(=O)NCCC(C)C)nc3ccccc23)cc1
15,1270 s,CC1(C)CCCC2(C)C3=C(CCC12)C(=O)OC3 (stereo not given)
16,712 s,O=C(Cn1c(=O)c(CCC(=O)NC2CC2)nc2ccccc21)Nc1ccccc1Br
17,960 s,CS(=O)(=O)N1CCC(C(=O)Nc2ccccc2F)Oc2ccc(Cl)cc21 (stereo not given)
18,1100 s,CCOc1ccc(NC(=O)C2CCCN(c3nccnc3Sc3ccccc3)C2)cc1 (stereo not given)
19,907 s,CCOc1ccc(C(C)NC(=O)C2c3ccccc3CCN2C(=O)C2CC2)cc1 (stereo not given)
20,960 s,COc1ccccc1-c1nc(Cn2ccn3nc(-c4ccc5c(c4)OCO5)cc3c2=O)c(C)o1
21,594 s,CN(CCc1noc(C2CN(Cc3c(F)cccc3Cl)C2)n1)S(C)(=O)=O
22,717 s,CCCn1cc(CCNC(=O)Nc2ccccc2C)c2cccnc21

row,RP-LC retention time,Compound
1,830 s,Cn1ncc2c(N3CCSCC3)nc(C(=O)N3CCN(c4ccccc4)CC3)nc21
2,659 s,COc1ccc(C)cc1NC(=O)N1CCN(c2ccc(-c3ccc4c(c3)OCO4)nn2)CC1
3,1220 s,Cc1ccc(-c2nsc3c(=O)n(C)c(SCC(=O)N4CCOc5ccc(C)cc54)nc23)cc1
4,830 s,COc1ccccc1NC(=O)N1c2ccccc2NC2=C(C(=O)CCC2)C1c1ccco1 (stereo not given)
5,763 s,Cc1ccc(NS(=O)(=O)c2ccc3c(c2)CCCC(=O)N3)cc1F
6,795 s,Cc1coc2c(C)c3oc(=O)c(CCC(=O)N4CCN(c5ccccn5)CC4)c(C)c3cc12
7,1250 s,O=C(COc1ccc(Cl)cc1Cl)Nc1nc(-c2ccc(F)cc2)cs1
8,699 s,CC(C)CC(=O)N[C@H](Cc1ccccc1)C(=O)NCc1cscn1
9,582 s,Cc1ccc2[nH]c(C(=O)N3CCOCC3)cc2c1
10,773 s,CC(C)N1C(=O)c2cccnc2Sc2cc(NC(=O)c3ccoc3)ccc21
11,1170 s,CC(C)CC(=O)Nc1ccc(-c2nc(-c3ccc(F)cc3)no2)cc1
12,694 s,COc1ccccc1CNC(=O)Cn1nc2c(N3CCCCCC3)nccn2c1=O
13,601 s,Cc1cc(C)c(S(=O)(=O)N(CCN2CCCCC2C)CC(=O)N2CCNCC2)c(C)c1 (stereo not given)
14,768 s,CCSc1nnc(-c2nn(C)c3c2CN(C(=O)c2c(F)cccc2Cl)CC3)n1C
15,1010 s,CN(C)c1ccc(-c2nc(-c3cn(Cc4ccc(F)cc4)nn3)no2)cc1
16,646 s,CCOC(=O)c1c(C)c(CCC(=O)N2CCN(c3ccccn3)CC2)c(C)n1C
17,1120 s,Cc1ccccc1Cn1nc(-c2nc(C(C)(C)C)no2)ccc1=O
18,977 s,CCCNC(=O)c1cc(-c2ccccc2)cn1CC
19,861 s,O=c1ccc(N2CCCN(S(=O)(=O)c3ccc(F)c(F)c3)CC2)nn1-c1ccccc1
20,851 s,COc1ccc(C(=O)N2CCC(COc3ccc(C(=O)NC(C)C)cc3)CC2)c(C)c1
21,815 s,COc1ccc(NC(=O)Nc2cccn3c(C4CCC4)nnc23)cc1F
22,724 s,Cc1cc(C(=O)NC2CCCCCC2)n[nH]1

row,RP-LC retention time,Compound
1,755 s,Cc1cccc(C)c1Nc1c(-c2ccc(N3CCOCC3)cc2)nc2cnccn12
2,652 s,O=C(Cn1cnc2nc(N3CCCC(C(=O)NC4CC4)C3)sc2c1=O)NC1CCCCC1 (stereo not given)
3,648 s,O=c1cc(-c2cc(O)c(O)c([C@@H]3O[C@H](CO)[C@@H](O)[C@H](O)[C@H]3O)c2)oc2cc(O[C@@H]3O[C@H](CO)[C@@H](O)[C@H](O)[C@H]3O)cc(O)c12
4,611 s,CC(C)n1cnc2cc(CNC(=O)C3CCCCC3)ccc21
5,862 s,CCCCN1N=C(C(=O)N2CCOCC2)S(=O)(=O)c2cc(Cl)ccc21
6,614 s,COc1ccc(N2CCN(c3nc(C(=O)N4CCN(C)CC4)cs3)CC2)cc1
7,581 s,CCc1cc(N2CCN(C(=O)c3ccc(C#N)cc3)CC2)nc2nncn12
8,651 s,CCN(CC)c1ccc(-c2noc(CN3CCSCC3)n2)cn1
9,609 s,Nc1nc(N2CCOCC2)ncc1C(=O)NCc1ccccc1
10,605 s,c1cncc(-c2nc(-c3ccc(OC4CNC4)cc3)no2)c1
11,1110 s,CSc1cccc2sc(N(Cc3ccco3)C(=O)c3ccc(C#N)cc3)nc12
12,613 s,Cn1ncc(N2CCCC(CC(=O)O)C2)cc1=O (stereo not given)
13,809 s,COCCn1cc(C(=O)NCc2c(F)cccc2F)c2nn(-c3ccccc3)c(=O)c-2c1
14,683 s,O=C(NC1CC1)C1CCCN(c2ccc3cc(S(=O)(=O)N4CCCCC4)ccc3n2)C1 (stereo not given)
15,771 s,CCn1c(SC)nnc1-c1nn(C)c2c1CN(C(=O)Cc1ccc(F)cc1)CC2
16,684 s,Cc1nn(-c2cc(N(C)C)ncn2)c(C)c1CCC(=O)NCc1ccco1
17,665 s,CNC(=O)C1CCCN(C(=O)Nc2ccc(NC(=O)Nc3ccc(F)cc3)cc2)C1 (stereo not given)
18,794 s,Cc1noc(-c2ccc(=O)n(Cc3ccccc3F)n2)n1
19,562 s,COc1ncccc1CNC(=O)c1ccc(C)nc1
20,863 s,CN(Cc1ccccc1)C(=O)C1CC(=O)N(CCc2c[nH]c3ccc(Cl)cc23)C1 (stereo not given)
21,982 s,COc1ccc(Cl)cc1NC(=O)N1CCCC(C)(C(=O)NCc2ccc(C)cc2)C1 (stereo not given)
22,678 s,Cn1cc(C(=O)NC2CCCCC2)c2nn(-c3ccccc3)c(=O)c-2c1

row,RP-LC retention time,Compound
1,1050 s,COc1ccc(N2CC(c3nc(-c4ccc(Br)cc4)no3)CC2=O)cc1 (stereo not given)
2,608 s,Cc1noc(C)c1CC(=O)N1CC[C@@H]2CN(S(C)(=O)=O)[C@@H]2C1
3,873 s,O=C(Cc1cccc(F)c1)Nc1nnc(SCc2nnc(-c3ccccc3)o2)s1
4,906 s,Cc1c(Cl)cccc1NC(=O)Cn1nc(N(C)C)c2ccccc2c1=O
5,913 s,COc1cc(NC(=O)Nc2nccn(-c3cc(C)cc(C)c3)c2=O)cc(OC)c1
6,537 s,CN(Cc1nc2ccccc2[nH]1)C(=O)c1ccco1
7,976 s,O=C(Nc1cc(Cl)ccc1F)c1cnc(-c2ccccc2)nc1-c1ccncc1
8,891 s,CCc1nn(CCO)c(CC)c1Oc1cc(C#N)cc(C#N)c1
9,821 s,CCC(C)NC(=O)c1cnn(-c2ccc(-c3nc(C)no3)cn2)c1C (stereo not given)
10,777 s,CCCCN(C)C(=O)c1sc(Nc2ccccn2)nc1C
11,1020 s,COc1ccc(S(=O)(=O)Cc2nc(-c3cccc(Cl)c3)no2)cc1
12,1240 s,O=C(Nc1ccc(Br)cc1)C1CCCN(c2ncc(-c3ccc(F)cc3)cn2)C1 (stereo not given)
13,1010 s,O=C(c1cccc(Br)c1)N1CCc2nc(-c3ccc(F)cc3)ncc2C1
14,611 s,CCCCN(CC)CCCNC(=O)C1CCCN(c2ncnc3c2nc2n3CCCCC2)C1 (stereo not given)
15,664 s,CCc1cccc(NC(=O)N2C[C@@H](F)C[C@H]2C(=O)N2CCOCC2)c1
16,1180 s,Cc1cccc(C)c1OCC(=O)Nc1nc(-c2ccccc2)cs1
17,1150 s,O=C(Nc1ccc(Cl)cc1)N1CCN(c2nc3ccccc3nc2C(F)(F)F)CC1
18,925 s,CCc1nc2cc(-c3noc(-c4ccc(NC(C)=O)cc4)n3)ccc2o1
19,1130 s,COc1ccccc1-c1nc(Cn2nnc(-c3nc(-c4cccc(F)c4)no3)c2C)c(C)o1
20,653 s,Cc1ccn2c(NC(=O)c3ccccc3F)c(-c3ccccc3)nc2c1
21,943 s,Cc1noc(-c2ccc(-n3ncc(C(=O)NCCC(C)C)c3C)nc2)n1
22,587 s,O=C(O)c1ccc(NCCCO)c([N+](=O)[O-])c1

row,Compound,RP-LC retention time
1,COc1ncccc1CNC(=O)c1nn(C)c2ccccc12,798 s
2,CC(C)CN1CCN(C(=O)COc2ccc(NC(=O)C3CC3)cn2)CC1,570 s
